≈ marks a conversion by molar mass, not a printed value.
What was measured:
[1] = Drug metabolism in rat liver microsome assessed as reduction of aldehyde group at 10 mM measured after 15 mins in presence of NADPH by LC-MS analysis; format: ADME; details: microsomes, 10000 µM
[2] = Permeability of the compound in human Caco-2 cells assessed as compound recovery at 10 uM measured after 2 hrs by LC/MS/MS analysis; format: ADME, cell-based; details: read-out: Drug recovery
[3] = Drug metabolism in human liver microsome assessed as reduction of aldehyde group at 10 mM measured after 15 mins in presence of NADPH by LC-MS analysis; format: ADME; details: microsomes, 10000 µM
[4] = Volume of distribution at steady state in Crl:CD (SD) rat at 1 mg/kg, iv or 3 mg/kg, po measured upto 24 hrs by LC-MS/MS analysis; format: ADME, organism-based; details: in vivo, read-out: Vdss
[5] = Half-life in Crl:CD (SD) rat at 1 mg/kg, iv or 3 mg/kg, po measured upto 24 hrs by LC-MS/MS analysis; format: ADME, organism-based; details: in vivo
[6] = Dose normalized AUC in Crl:CD (SD) rat at 3 mg/kg, po measured up to 24 hrs by LC-MS/MS analysis; format: ADME, organism-based; details: in vivo
[7] = Clearance in Crl:CD (SD) rat at 1 mg/kg, iv or 3 mg/kg, po measured up to 24 hrs by LC-MS/MS analysis; format: ADME, organism-based; details: in vivo
[8] = Oral bioavailability in Crl:CD (SD) rat at 3 mg/kg measured upto 24 hrs by LC-MS/MS analysis; format: ADME, organism-based; details: Crl:CD (SD), in vivo
[9] = Thermodynamic solubility of compound in phosphate buffer at pH 6.8 measured after 15 mins by shake-flask method based LC-HRMS analysis; format: physicochemical; details: read-out: Therm_solubility
[10] = Dose normalized AUC in Crl:CD (SD) rat at 1 mg/kg, iv measured up to 24 hrs by LC-MS/MS analysis; format: ADME, organism-based; details: in vivo
[11] = Oral bioavailability in Crl:CD (SD) rat at 3 mg/kg administered as nanosuspension formulated in CMC-5/Tween 80 measured up to 24 hrs by LC-MS/MS analysis; format: ADME, organism-based; details: in vivo
[12] = Aqueous solubility of compound at pH 6.8; format: physicochemical; details: buffer, time 15 min

Row | Compound | Drug metabolism [1] | recovery at 2 h, 10 µM [2] [%] | Drug metabolism [3] | also measured
1 | CN(C)Cc1cc2c(nc1C=O)N(C(=O)Nc1ccc(C#N)cn1)CCC2 | Metabolite_Detected | < 10 | Metabolite_Detected | 
2 | CC(C)Oc1cc(NC(=O)N2CCCc3ccc(C=O)nc32)ncc1C#N | Metabolite_Detected | < 10 | Metabolite_Detected | 
3 | COCCOc1cc(NC(=O)N2CCCc3cc(COC)c(C=O)nc32)ncc1C#N | Metabolite_Detected | < 10 | Metabolite_Detected | 
4 | O=Cc1ccc2c(n1)N(C(=O)Nc1ccc(C(F)(F)F)cn1)CCO2 | Metabolite_Detected | < 10 | Metabolite_Detected | 
5 | COCCOc1cc(NC(=O)N2CCCc3cc(CO)c(C=O)nc32)ncc1C#N | Metabolite_Detected | < 10 | Metabolite_Detected | Vd [4]: 2.5 L/kg; half-life [5]: 2 h; AUC/dose [6]: 194 nM·h; clearance [7]: 52 mL/min/kg; bioavailability [8]: 24%; solubility thermodynamic at […] [9]: 11 µM (≈ 4.53 µg/mL)
6 | N#Cc1cnc(NC(=O)N2CCCc3cc(CO)c(C=O)nc32)cc1O[C@@H]1CCOC1 | Metabolite_Detected | < 10 | Metabolite_Detected | 
7 | O=Cc1ccc2cccc(C(=O)Nc3ccc(C(F)(F)F)cn3)c2n1 |  |  |  | solubility thermodynamic at […] [9]: < 2.9 µM
8 | CC(C)COc1cc(N2CCC(N(C)C)CC2)ccc1Nc1ncc(C#N)c(N[C@H]2[C@@H](C(N)=O)[C@@H]3C=C[C@H]2C3)n1 | Metabolite_Detected | < 10 | Metabolite_Detected | 
9 | COCCNc1cc(NC(=O)N(CCOC)c2cccc(C=O)n2)ncc1C#N | Metabolite_Detected | < 10 | Metabolite_Detected | 
10 | C=CC(=O)Nc1ccccc1C(=O)Nc1cc(CCc2cc(OC)cc(OC)c2)[nH]n1 | Metabolite_Detected | < 10 | Metabolite_Detected | 
11 | COCCNc1cc(NC(=O)N(C)c2cccc(C=O)n2)ncc1C#N | Metabolite_Detected | < 10 | Metabolite_Detected | 
12 | COCCNc1cc(NC(=O)N2CCCc3cc(C(F)F)c(C=O)nc32)ncc1C#N | Metabolite_Detected | < 10 | Metabolite_Detected | AUC/dose [10]: 964 nM·h; Vd [4]: 4.7 L/kg; bioavailability [11]: 80%; half-life [5]: 2.3 h; AUC/dose [6]: 774 nM·h; clearance [7]: 40 mL/min/kg; bioavailability [8]: 7%; solubility thermodynamic at […] [9]: < 6 µM
13 | N#Cc1ccc(NC(=O)N2CCCc3cc(N)c(C=O)nc32)nc1 | Metabolite_Detected | < 10 | Metabolite_Detected | 
14 | O=Cc1nc2c(C(=O)Nc3ccc(C(F)(F)F)cn3)cccc2cc1O | Metabolite_Detected | < 10 | Metabolite_Detected | 
15 | COC[C@@H](C)Nc1cc(NC(=O)N2CCCc3cc(CN4CCN(C)CC4=O)c(C=O)nc32)ncc1C#N |  |  |  | clearance [7]: 35 mL/min/kg
16 | COCCNc1cc(NC(=O)N2CCCc3cc(CN(C)C(C)=O)c(C=O)nc32)ncc1C#N |  |  |  | AUC/dose [10]: 2307 nM·h; Vd [4]: 8.6 L/kg; half-life [5]: 27.7 h; AUC/dose [6]: 599 nM·h; clearance [7]: 16 mL/min/kg; bioavailability [8]: 26%; solubility thermodynamic at […] [9]: 8 µM (≈ 3.72 µg/mL)
17 | COc1cc2c(nc1C=O)N(C(=O)Nc1ccc(C#N)cn1)CCC2 | Metabolite_Detected | < 10 | Metabolite_Detected | 
18 | COCCNc1cc(NC(=O)N2CCCc3cc(-n4cnc(C)c4)c(C=O)nc32)ncc1C#N | Metabolite_Detected | < 10 | Metabolite_Detected | solubility at […] [12]: < 4 µM
19 | COCCOc1cc(NC(=O)N2CCCc3cc(Br)c(C=O)nc32)ncc1C#N | Metabolite_Detected | < 10 | Metabolite_Detected | 
20 | COC[C@H](C)Nc1cc(NC(=O)N2CCCc3cc(CN4CCN(C)CC4=O)c(C=O)nc32)ncc1C#N |  |  |  | clearance [7]: 19 mL/min/kg
21 | COCCNc1cc(NC(=O)N(C)c2ccc(CN3CCN(C)CC3=O)c(C=O)n2)ncc1C#N |  |  |  | clearance [7]: 88 mL/min/kg
22 | CCN1CCN(c2ccc(Nc3cc(N(C)C(=O)Nc4c(Cl)c(OC)cc(OC)c4Cl)ncn3)cc2)CC1 [INFIGRATINIB] | Metabolite_Detected | < 10 | Metabolite_Detected | 

— ChEMBL document CHEMBL4715854, “Discovery of Roblitinib (FGF401) as a Reversible-Covalent Inhibitor of the Kinase Activity of Fibroblast Growth Factor Receptor 4” (J Med Chem, 2020)
